Assay results from paper PMC12455390, “Three Is Better than One: A Multimetal Complex that Triggers Immunogenic Cell Death” (Angewandte Chemie (International Ed. in English), 2025).
Like-named read-outs stand apart in the source and are kept apart here.

Experiments:
human TrxR2 = molecular target: T1, human TrxR2 (Homo sapiens, UniProt Q9NNW7); assay: Isolated TrxR2 inhibition (DTNB assay); format: biochemical; settings: 75 min incubation at 37 °C
T1 construct: purchased SeLENOZYME
Procedure: (§1) A number of gold and ruthenium complexes are known to inhibit members of the TrxR enzyme family.^[ [27] ^] […] We thus sought to evaluate the activity of our gold‐ and ruthenium‐containing complexes against TrxR1 (found in the cytoplasm) and TrxR2 (found in the mitochondria).
(§2) Human TrxR1 and TrxR2 were purchased from SeLENOZYME and inhibition studies were carried out by means of a DTNB assay in 96-well culture plates. Enzymes were diluted to achieve a concentration of 3.58 U mL^−1. The compounds subject to testing were freshly dissolved in DMF. 10 μL aliquots of the enzyme solution and 10 μL of solutions of the compounds at graded concentrations or 10 μL of 1% DMF in PBS (positive control) were added and incubated for 75 min at 37 °C. A second control consisted of 10 µL of the highest concentration of each compound with 10 µL of PBS. After the chosen incubation time, 10 µL of NADPH (10 mM), 160 µL TE buffer (50 mM Tris-HCl, 2 mM EDTA, pH 7.5) and 10 µL ethanolic DTNB (50 mM) were added producing a total reaction volume of 200 µL. After proper mixing, the formation of 5-TNB was monitored with a microplate reader at 405 nm. This was done 10 times at 30 second intervals over the course of about 5 min. A TNB standard curve (0-2 mM in 200 µL TE buffer) was used to calculate the exact DTNB consumed in the reaction with linear region slopes being calculated by plotting A405 vs time (min). The IC50 values representing the concentration of compound serving to decrease the enzymatic activity of the untreated control by 50% were calculated and are given as the mean and standard error of three repeated experiments. The combination index (CI) was calculated using the Chou-Talalay method^6

[1] = tested on: reducing enzymes, such as lipoamide dehydrogenase, glutathione reductase, and TrxR; format: cell-based
Procedure: We thus explored several targets in addition to cellular and organelle uptake after 24 h incubation. A lipoate‐to‐dihydrolipoate reduction assay in HCT‐116 cells was used to evaluate the ability of the complexes to inhibit reducing enzymes, such as lipoamide dehydrogenase, glutathione reductase, and TrxR.^[ [25] ^]
In short, HCT-116 cells were harvested and seeded at a density of 10,000 cells/well in 96-well culture plates. Following an overnight incubation at 37°C under a 5% CO2 atmosphere, the medium was replaced, and the cells incubated with 1 µM of each complex for additional 24 hr. Thereafter, the media were removed from each well, which were then washed with 200 μL of HBSS solution. Finally, 100 µL of 5 mM lipoate and 1 mM of DTNB solutions were added to each well. The absorbance of each well at 405 nm was recorded immediately and once every 20 min for one hour using a microplate reader. Plates were covered with aluminum foil between readings.

human TrxR1 = molecular target: T2, human TrxR1 (Homo sapiens, UniProt Q16881); assay: Isolated TrxR1 inhibition (DTNB assay); format: biochemical; settings: 75 min incubation at 37 °C
T2 construct: purchased SeLENOZYME
T2 sequence (Q16881 1-499 isoform Q16881-5): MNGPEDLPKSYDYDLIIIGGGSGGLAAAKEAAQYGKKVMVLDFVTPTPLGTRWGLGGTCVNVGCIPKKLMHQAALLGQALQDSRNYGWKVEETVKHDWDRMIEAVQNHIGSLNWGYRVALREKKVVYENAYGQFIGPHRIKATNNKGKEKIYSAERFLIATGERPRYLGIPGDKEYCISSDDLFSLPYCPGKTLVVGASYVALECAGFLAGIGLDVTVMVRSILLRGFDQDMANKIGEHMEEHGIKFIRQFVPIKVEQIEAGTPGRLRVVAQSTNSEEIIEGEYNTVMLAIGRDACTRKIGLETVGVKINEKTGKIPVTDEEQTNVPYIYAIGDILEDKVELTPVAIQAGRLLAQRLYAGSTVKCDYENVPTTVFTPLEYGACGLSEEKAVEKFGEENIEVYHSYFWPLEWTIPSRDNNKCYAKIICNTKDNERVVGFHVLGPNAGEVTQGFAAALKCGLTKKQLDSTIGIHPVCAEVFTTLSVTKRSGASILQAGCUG
Procedure: as §1, §2

[2] = tested on: A2780 (ovarian carcinoma); assay: Antiproliferative MTT assay, A2780; format: cell-based, human; settings: A2780, 72 h incubation
Procedure: (§3) We examined the antiproliferative activity of the heterometallic complexes 3–5 and compared them against their monometallic constituent components, as well as a physical 1:1:1 mixture of 1 + Oxa + 2 after 72 h incubation across a panel of five cancer cell lines: A2780 (ovarian carcinoma), A2780cis (ovarian carcinoma resistant to cisplatin, also referred to as A2780CP), CT26 WT (murine colorectal carcinoma), A375 (melanoma), and PC9 (non‐small cell lung cancer).
(§4) A375 melanoma cells (5000 cells/well), PC9 […] cells (5000 cells/well), CT26 WT murine colon carcinoma cells (5000 cells/well), A2780 ovarian carcinoma cells (5000 cells/well), and A2780cis cisplatin-resistant ovarian carcinoma cells (7000 cells/well), were seeded in flat-bottom 96-well plates in their respective cell culture media (100 µL) and incubated at 37°C in a 5% CO2 environment for 24 h. After that, the media were replaced with the fresh media. Stock solutions of the compounds in DMSO or in cell culture medium (for Oxa) were freshly prepared and diluted with the respective cell culture medium to graded concentrations (final concentration of DMSOmax: 0.5% v/v). After 72 h of exposure, the media were removed and 100 µL of 0.5 mg/mL 3-(4,5-dimethylthiazol-2-yl)-2,5-diphenyl tetrazolium bromide (MTT) in DMEM or RPMI were added and the plate in question further incubated for an additional 1 h. The media containing the MTT solution was removed and the resulting formazan crystals were dissolved in 100 µL DMSO. The absorbance of the solution in each well was read at 570 nm using a BioTek Cytation3 plate reader. The IC50 value, which is the drug concentration needed for 50% reduction in survival, based on the survival curve, was calculated by fitting nonlinear curves in GraphPad Prism 5 Ver 5.03, using a normalized response variable slope model constructed by plotting cell viability (%) vs log of the concentration of the complex in question in nM. The results are presented as the mean values of three independent experiments.

[3] = tested on: CT26 WT (murine colorectal carcinoma); assay: Antiproliferative MTT assay, CT26 WT; format: cell-based; settings: CT 26 WT, 72 h incubation
Procedure: as §3, §4

HCT-116 cells = assay: Total cellular metal accumulation (ICP-MS); format: cell-based; settings: 1 µM, 24 h
Procedure: It is important to note the TrxR assay was performed using isolated enzymes. […] Recognizing this, we incubated HCT‐116 cells with 1 µM of complexes 1–5 for 24 h and quantified the total metal content via ICP‐MS (Figure 4a).
1 x 10^6 HCT-116 cells were seeded in a 6-well plate (2 mL RPMI-1640). After incubating overnight, the medium was replaced, and the cells were treated with the test compounds (1 µM) for 24 h. The resulting cell monolayers were washed twice with cold PBS, harvested and counted in PBS for a total volume of 400 µL. Samples were divided, and each was mineralized with 1 mL aqua regia and evaporated to dryness on a 110 °C hot plate overnight. Later, 1 mL of 2% HCl + 1% thiourea was added to each vial. Samples were quantified via ICP-MS. Metal accumulation levels were determined using the relative isotopic prevalence of ^195Pt, ^101Ru, and ^197Au.

[4] = tested on: A2780cis (ovarian carcinoma resistant to cisplatin); assay: Antiproliferative MTT assay, A2780cis; format: cell-based, human; settings: A2780 CisR, 72 h incubation
Procedure: as §3, §4

[5] = tested on: PC9 (non-small cell lung cancer); assay: Antiproliferative MTT assay, PC9; format: cell-based, human; settings: PC9, 72 h incubation
Procedure: as §3, §4

A375 (melanoma) = assay: Antiproliferative MTT assay, A375; format: cell-based, human; settings: A375, 72 h incubation
Procedure: as §3, §4

CT26 cells = assay: Extracellular HMGB1 release (ELISA); format: cell-based, murine; settings: IC50 concentrations, 24 h
Procedure: Oxa alone produced a modest effect, consistent with its known ICD profile.^[ [5] ^]
1 x 10^6 CT-26 cells were seeded in a 6-well plate (2 mL RPMI-1640). […] The HMGB1 release of the supernatant was quantified using HMGB1 Detection Kit ELISA (Chondrex, Catalog 6010) according to the manufacturer’s instructions.

T1 sequence (Q9NNW7 37-524): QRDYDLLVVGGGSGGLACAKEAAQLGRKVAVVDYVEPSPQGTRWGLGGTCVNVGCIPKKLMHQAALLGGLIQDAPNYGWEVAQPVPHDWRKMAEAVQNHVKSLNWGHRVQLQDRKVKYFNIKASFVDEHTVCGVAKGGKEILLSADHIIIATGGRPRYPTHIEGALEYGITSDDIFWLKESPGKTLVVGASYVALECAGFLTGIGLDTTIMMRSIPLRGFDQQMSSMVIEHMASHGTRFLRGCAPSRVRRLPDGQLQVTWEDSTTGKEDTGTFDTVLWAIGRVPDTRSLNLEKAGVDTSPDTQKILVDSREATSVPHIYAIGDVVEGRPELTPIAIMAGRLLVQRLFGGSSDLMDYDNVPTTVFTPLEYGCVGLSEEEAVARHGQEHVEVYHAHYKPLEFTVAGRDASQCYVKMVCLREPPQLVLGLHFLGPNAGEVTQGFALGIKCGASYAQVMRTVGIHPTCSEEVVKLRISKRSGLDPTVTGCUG

| Compound | IC50 (human TrxR2) [nM] | dihydrolipoate production relative to control ([1]; HCT-116 cells, 1 µM, 24 h) | IC50 (human TrxR1) [nM] | dihydrolipoate production relative to control [1] | IC50 [2] [nM] | IC50 [3] [µM] | total cellular metal uptake (HCT-116 cells) | IC50 [4] [nM] | IC50 [5] [µM] | IC50 (A375 (melanoma)) [µM] | Extracellular HMGB1 release (CT26 cells) |
| --- | --- | --- | --- | --- | --- | --- | --- | --- | --- | --- | --- |
| CC(=O)OC[C@H]1O[C@@H]([S-])[C@H](OC(C)=O)[C@@H](OC(C)=O)[C@@H]1OC(C)=O.CCP(CC)CC.[Au+] [Auranofin, reference compound] | 220 ± 40 | 55% | 60 ± 20 | – | – | – | – | – | – | – | – |
| Cc1ccc(C(C)C)cc1.O=C(O)c1ccc(NC(=S)c2ccccn2)cc1.[Cl-].[Cl][Ru+] [Complex 1, [Chlorido(η6-p-cymene)(N-(4-benzoic acid)-2-pyridinecarbothioamide)ruthenium(II)] chloride] | 4360 ± 410 | – | 3440 ± 320 | activity similar to untreated cells (control) | 15700 ± 4300 | > 40 | low accumulation of ruthenium | > 40000 | > 40 | > 40 | – |
| Cc1cc(C)c(-n2ccn(CCOC(=O)NCCN)[c]2=[Au-3]=[c]2n(-c3c(C(C)C)cccc3C(C)C)c3c(n2-c2c(C(C)C)cccc2C(C)C)C(=O)c2ccccc2C3=O)c(C)c1.O=C([O-])C(F)(F)F [Complex 2, (1-(2-(((2-Aminoethyl)carbamoyl)oxy)ethyl)-3-mesityl-1,3-dihydro-2H-2λ3-imidazol-2-yl)(1,3-bis(2,6-diisopropylphenyl)-4,9-dioxo-1,3,4,9-tetrahydro-2H-2λ3-naphtho[2,3-d]imidazol-2-yl)gold (I) TFA salt] | 1270 ± 210 | 72% | 1620 ± 130 | – | 340 ± 80 | 14.9 ± 0.4 | – | 560 ± 90 | 0.49 ± 0.13 | 2.48 ± 0.35 | – |
| O=C1[O][Pt]2([NH][C@@H]3CCCC[C@H]3[NH]2)[O]C1=O [Oxa, oxaliplatin, reference compound] | 28200 ± 2900 | activity similar to untreated cells (control) | 25600 ± 3700 | – | 290 ± 30 | 20 ± 1.4 | – | 1010 ± 220 | 8.2 ± 1 | 3.16 ± 0.49 | modest effect |
